{
  "source": "patent US20230263853A1",
  "about": "“ECTOPARASITICIDE VETERINARY COMPOSITION” (priority 2020, published 2023)",
  "key": {"[1]": {"system": "Escherichia coli (ATCC25322)", "test": "In vitro inhibition test against bacteria, Table 5", "assay_type": "cell-based", "set-up": "key to Inhibitory Activity (stopping power thoroughness and lasting effect): +++ = best; (−) = worst", "details": "B diluted by 1000 times", "protocol": "(§1) An ectoparasiticide veterinary composition of Example 1 (labelled here as PST22) was tested in an in vitro experimental laboratory to test its efficacy against conventional antibiotics used to control harmful bacteria and fungus that cause untold harm in modern poultry producers. Leading world authorities including the World Health Organisation (WHO) have graded Antimicrobial Resistance (AMR) as a serious global health issue that threatens the prevention and treatment of an increasing range of infections."}, "[2]": {"system": "Salmonella typhimurium (ATCC 14028)", "test": "In vitro inhibition test against bacteria, Table 7", "assay_type": "cell-based", "set-up": "key to Inhibitory Activity (stopping power thoroughness and lasting effect): +++ = best; (−) = worst", "details": "B diluted by 1000 times", "protocol": "as §1"}, "[3]": {"system": "Pseudomonas aeruginosa (ATCC 27853)", "test": "In vitro inhibition test against bacteria, Table 8", "assay_type": "cell-based", "set-up": "key to Inhibitory Activity (stopping power thoroughness and lasting effect): +++ = best; (−) = worst", "details": "B diluted by 1000 times", "protocol": "as §1"}, "[4]": {"system": "Aspergillus niger (ITDI Ref. No. 3008)", "test": "In vitro inhibition test against fungi, Table 10", "assay_type": "cell-based", "set-up": "key to Inhibitory Activity (stopping power thoroughness and lasting effect): +++ = best; (−) = worst", "protocol": "(§2) An ectoparasiticide veterinary composition of Example 1 (labelled here as PST22) was tested in an in vitro experimental laboratory to test its efficacy against conventional antibiotics used to control harmful bacteria and fungus that cause untold harm in modern poultry producers."}, "[5]": {"system": "Saccharomyces cerevisiae (ATCC 9763)", "test": "In vitro inhibition test against fungi, Table 9", "assay_type": "cell-based", "set-up": "key to Inhibitory Activity (stopping power thoroughness and lasting effect): +++ = best; (−) = worst", "protocol": "as §2"}, "[6]": {"system": "Staphylococcus aureus (ATCC 6538P)", "test": "In vitro inhibition test against bacteria, Table 6", "assay_type": "cell-based", "set-up": "key to Inhibitory Activity (stopping power thoroughness and lasting effect): +++ = best; (−) = worst", "details": "B diluted by 1000 times", "protocol": "as §1"}, "red mite": {"system": "red mite", "test": "Weekly mortality in broiler houses with red mite, trial house vs control house (Example 3)", "assay_type": "in vivo, Dermanyssus gallinae", "details": "poultry, over the 28 day period; trial house 4 ml per 10 litres water, control house standard antibiotics", "description": "Two broiler houses of poultry were used in the trial, a first “trial house” and a second “control house”. Mortality was recorded weekly to determine the red mite impact on the poultry.\nIn the trial house, the ectoparasiticide veterinary composition of Example 1 was administered to chickens via the in-line water system at a dose of 4 ml per 10 litres of clean water. The control house used the farm's standard medication program involving the administration of antibiotics (Fosfomycin and enrofloxacin). Flock performance monitoring (measuring the number of mortalities not including the standard cull numbers) was recorded weekly in each house over a 28 day period."}, "[7]": {"test": "Average live weight and feed conversion of broiler birds, trial house vs control house (Example 4)", "assay_type": "in vivo", "details": "at 28 days, trial house 1 ml per 1 litre drinking water 6 hours daily, control house antibiotics", "protocol": "Two poultry houses were used in the trial: a “trial house” and a “control house”. Each house contained 37000 broiler birds.\nIn the trial house, the ectoparasiticide veterinary composition of Example 1 was administered each afternoon continuously for 6 hours at a dosage of 1 ml per 1 litre of clean drinking water. The control house used the farm's standard medication program involving the administration of antibiotics (Fosfomycin and enrofloxacin).\nAverage live weight of the birds in each house was recorded weekly for a 28 day period. At the end of the trial a feed conversion ration was identified."}, "[8]": {"details": "A undiluted (10 mm), Amikacin 30 ug (6 mm)"}, "[9]": {"details": "A undiluted (10 mm), Amikacin 30 ug (8 mm)"}, "[10]": {"details": "A pure (10 mm), B 1 ml/L (10 mm), Clotrimazole (10 mm)"}, "[11]": {"details": "PST22 - B 1 ml/L (10 mm), Nystatin (10 mm)"}, "[12]": {"details": "A undiluted (10 mm), Oxacillin 1 ug (6 mm)"}},
  "data": [
    {"molecule": "NCC[C@H](O)C(=O)N[C@@H]1C[C@H](N)[C@@H](O[C@H]2O[C@H](CN)[C@@H](O)[C@H](O)[C@H]2O)[C@H](O)[C@H]1O[C@H]1O[C@H](CO)[C@@H](O)[C@H](N)[C@H]1O", "note": "[Amikacin]", "values": [
      {"measurement": "Average of 3× trials Reactivity Killing Power", "setting": "[1]; [8]", "result": 16.24, "unit": "mm"},
      {"measurement": "Trial 1", "setting": "[1]; [8]", "result": 16.20, "unit": "mm"},
      {"measurement": "Trial 2", "setting": "[1]; [8]", "result": 16.39, "unit": "mm"},
      {"measurement": "Trial 3", "setting": "[1]; [8]", "result": 16.12, "unit": "mm"},
      {"measurement": "Inhibitory Activity (stopping power thoroughness and lasting effect)", "setting": "[1]; A undiluted, Amikacin 30 ug", "result": "+++"},
      {"measurement": "Average of 3× trials Reactivity Killing Power", "setting": "[2]; [9]", "result": 16.30, "unit": "mm"},
      {"measurement": "Trial 1", "setting": "[2]; [9]", "result": 16.12, "unit": "mm"},
      {"measurement": "Trial 2", "setting": "[2]; [9]", "result": 16.26, "unit": "mm"},
      {"measurement": "Trial 3", "setting": "[2]; [9]", "result": 16.52, "unit": "mm"},
      {"measurement": "Inhibitory Activity (stopping power thoroughness and lasting effect)", "setting": "[2]; A undiluted, Amikacin 30 ug", "result": "+++"},
      {"measurement": "Average of 3× trials Reactivity Killing Power", "setting": "[3]; [9]", "result": 17.33, "unit": "mm"},
      {"measurement": "Trial 1", "setting": "[3]; [9]", "result": 17.89, "unit": "mm"},
      {"measurement": "Trial 2", "setting": "[3]; [9]", "result": 17.08, "unit": "mm"},
      {"measurement": "Trial 3", "setting": "[3]; [9]", "result": 17.02, "unit": "mm"},
      {"measurement": "Inhibitory Activity (stopping power thoroughness and lasting effect)", "setting": "[3]; A undiluted, Amikacin 30 ug", "result": "+++"}
    ]},
    {"molecule": "Clc1ccccc1C(c1ccccc1)(c1ccccc1)n1ccnc1", "note": "[Clotrimazole]", "values": [
      {"measurement": "Average of 3× trials (larger the better) Reactivity killing power", "setting": "[4]; [10]", "result": 16.06, "unit": "mm"},
      {"measurement": "Trial 1", "setting": "[4]; [10]", "result": 15.80, "unit": "mm"},
      {"measurement": "Trial 2", "setting": "[4]; [10]", "result": 16.20, "unit": "mm"},
      {"measurement": "Trial 3", "setting": "[4]; [10]", "result": 16.18, "unit": "mm"},
      {"measurement": "Inhibitory Activity (stopping power thoroughness and lasting effect)", "setting": "[4]; A pure, B 1 ml/L, Clotrimazole", "result": "+++"}
    ]},
    {"molecule": "C[C@@H]1[C@H](O)[C@@H](C)/C=C/C=C/CC/C=C/C=C/C=C/C=C/C(O[C@H]2O[C@H](C)[C@@H](O)[C@H](N)[C@@H]2O)CC2O[C@](O)(CC(O)C(O)CCC(O)CC(O)CC(O)CC(=O)O[C@H]1C)CC(O)C2C(=O)O", "note": "(stereo partly drawn) [Nystatin]", "values": [
      {"measurement": "Average of 3× trials Reactivity Killing Power", "setting": "[5]; [11]", "result": 4, "unit": "mm"},
      {"measurement": "Total Mean Zone of Inhibition", "setting": "[5]; [11]", "result": 21.58, "unit": "mm"},
      {"measurement": "Trail 2", "setting": "[5]; [11]", "result": 21.30, "unit": "mm"},
      {"measurement": "Trial 1", "setting": "[5]; [11]", "result": 21.28, "unit": "mm"},
      {"measurement": "Trial 3", "setting": "[5]; [11]", "result": 22.17, "unit": "mm"},
      {"measurement": "Inhibitory Activity (stopping power thoroughness and lasting effect)", "setting": "[5]; PST22 - B 1 ml/L, Nystatin", "result": "+++"}
    ]},
    {"molecule": "Cc1onc(-c2ccccc2)c1C(=O)N[C@@H]1C(=O)N2[C@@H]1SC(C)(C)[C@@H]2C(=O)O", "note": "[Oxacillin]", "values": [
      {"measurement": "Average of 3× trials Reactivity Killing Power", "setting": "[6]; [12]", "result": 21.25, "unit": "mm"},
      {"measurement": "Trial 1", "setting": "[6]; [12]", "result": 22.82, "unit": "mm"},
      {"measurement": "Trial 2", "setting": "[6]; [12]", "result": 20.20, "unit": "mm"},
      {"measurement": "Trial 3", "setting": "[6]; [12]", "result": 20.72, "unit": "mm"},
      {"measurement": "Inhibitory Activity (stopping power thoroughness and lasting effect)", "setting": "[6]; A undiluted, Oxacillin 1 ug", "result": "+++"}
    ]},
    {"molecule": "Fosfomycin and enrofloxacin", "values": [
      {"measurement": "mortality %", "setting": "red mite", "result": 5, "unit": "%"},
      {"measurement": "final average live weight", "setting": "[7]", "result": 1370, "unit": "g"}
    ]}
  ]
}
